# Assays:
# Format in all cases: functional
# [1] = system: HL-60(TB); experiment: Growth inhibition of human HL-60(TB) cells incubated for 48 hrs by sulforhodamine B assay; conditions: for CC50: read-out: LC50 (the source's name)
# [2] = system: MOLT-4; experiment: Growth inhibition of human MOLT-4 cells incubated for 48 hrs by sulforhodamine B assay
# [3] = system: RPMI-8226; experiment: Growth inhibition of human RPMI-8226 cells incubated for 48 hrs by sulforhodamine B assay
# [4] = system: SR; experiment: Growth inhibition of human SR cells incubated for 48 hrs by sulforhodamine B assay
# [5] = system: A549; experiment: Growth inhibition of human A549/ATCC cells incubated for 48 hrs by sulforhodamine B assay; conditions: for CC50: read-out: LC50 (the source's name)
# [6] = system: HOP-62; experiment: Growth inhibition of human HOP-62 cells incubated for 48 hrs by sulforhodamine B assay; conditions: for CC50: read-out: LC50 (the source's name)
# [7] = system: NCI-H322M; experiment: Growth inhibition of human NCI-H322M cells incubated for 48 hrs by sulforhodamine B assay
# [8] = system: NCI-H460; experiment: Growth inhibition of human NCI-H460 cells incubated for 48 hrs by sulforhodamine B assay; conditions: for CC50: read-out: LC50 (the source's name)
# [9] = system: NCI-H522; experiment: Growth inhibition of human NCI-H522 cells incubated for 48 hrs by sulforhodamine B assay
# [10] = system: COLO 205; experiment: Growth inhibition of human COLO 205 cells incubated for 48 hrs by sulforhodamine B assay
# [11] = system: HCC 2998; experiment: Growth inhibition of human HCC 2998 cells incubated for 48 hrs by sulforhodamine B assay; conditions: for CC50: read-out: LC50 (the source's name)
# [12] = system: HCT-116; experiment: Growth inhibition of human HCT-116 cells incubated for 48 hrs by sulforhodamine B assay; conditions: for CC50: read-out: LC50 (the source's name)
# [13] = system: HCT-15; experiment: Growth inhibition of human HCT-15 cells incubated for 48 hrs by sulforhodamine B assay; conditions: for CC50: read-out: LC50 (the source's name)
# [14] = system: HT-29; experiment: Growth inhibition of human HT-29 cells incubated for 48 hrs by sulforhodamine B assay
# [15] = system: KM12; experiment: Growth inhibition of human KM12 cells incubated for 48 hrs by sulforhodamine B assay
# [16] = system: SW-620; experiment: Growth inhibition of human SW-620 cells incubated for 48 hrs by sulforhodamine B assay
# [17] = system: SF-295; experiment: Growth inhibition of human SF-295 cells incubated for 48 hrs by sulforhodamine B assay
# [18] = system: SF-539; experiment: Growth inhibition of human SF-539 cells incubated for 48 hrs by sulforhodamine B assay
# [19] = system: SNB-19; experiment: Growth inhibition of human SNB-19 cells incubated for 48 hrs by sulforhodamine B assay
# [20] = system: SNB-75; experiment: Growth inhibition of human SNB-75 cells incubated for 48 hrs by sulforhodamine B assay
# [21] = system: U-251; experiment: Growth inhibition of human U-251 cells incubated for 48 hrs by sulforhodamine B assay
# [22] = system: SK-MEL-2; experiment: Growth inhibition of human SK-MEL-2 cells incubated for 48 hrs by sulforhodamine B assay
# [23] = system: SK-MEL-28; experiment: Growth inhibition of human SK-MEL-28 cells incubated for 48 hrs by sulforhodamine B assay
# [24] = system: UACC-257; experiment: Growth inhibition of human UACC-257 cells incubated for 48 hrs by sulforhodamine B assay
# [25] = system: UACC-62; experiment: Growth inhibition of human UACC-62 cells incubated for 48 hrs by sulforhodamine B assay
# [26] = system: OVCAR-4; experiment: Growth inhibition of human OVCAR-4 cells incubated for 48 hrs by sulforhodamine B assay
# [27] = system: OVCAR-5; experiment: Growth inhibition of human OVCAR-5 cells incubated for 48 hrs by sulforhodamine B assay
# [28] = system: OVCAR-8; experiment: Growth inhibition of human OVCAR-8 cells incubated for 48 hrs by sulforhodamine B assay
# [29] = system: RXF 393; experiment: Growth inhibition of human RXF 393 cells incubated for 48 hrs by sulforhodamine B assay
# [30] = system: SN12C; experiment: Growth inhibition of human SN12C cells incubated for 48 hrs by sulforhodamine B assay
# [31] = system: UO-31; experiment: Growth inhibition of human UO-31 cells incubated for 48 hrs by sulforhodamine B assay
# [32] = system: PC-3; experiment: Growth inhibition of human PC-3 cells incubated for 48 hrs by sulforhodamine B assay; conditions: for CC50: read-out: LC50 (the source's name)
# [33] = system: Hs-578T; experiment: Growth inhibition of human Hs-578T cells incubated for 48 hrs by sulforhodamine B assay
# [34] = system: BT-549; experiment: Growth inhibition of human BT-549 cells incubated for 48 hrs by sulforhodamine B assay
# [35] = system: T47D; experiment: Growth inhibition of human T47D cells incubated for 48 hrs by sulforhodamine B assay
structure (smiles),measurement,setting,value
O=C(CNc1c(Cl)cccc1Cl)Nc1ccc(-c2nc3ccccc3s2)cc1,GI50,[1],2430 nM
same,TGI,[1],8.38 µM
same,CC50,[1],> 100 µM
same,GI50,[2],1050 nM
same,LC50,[2],> 100 µM
same,TGI,[2],7.43 µM
same,GI50,[3],2070 nM
same,LC50,[3],> 100 µM
same,TGI,[3],5.21 µM
same,GI50,[4],1050 nM
same,LC50,[4],> 100 µM
same,TGI,[4],5.33 µM
same,GI50,[5],3.65 µM
same,TGI,[5],16.9 µM
same,CC50,[5],> 100 µM
same,GI50,[6],3.31 µM
same,TGI,[6],11.8 µM
same,CC50,[6],77.8 µM
same,GI50,[7],1800 nM
same,LC50 (concentration killing 50% of cells),[7],7.07 µM
same,TGI,[7],3.57 µM
same,GI50,[8],3.36 µM
same,TGI,[8],12.4 µM
same,CC50,[8],43 µM
same,GI50,[9],1290 nM
same,LC50 (50% lethal concentration),[9],7.58 µM
same,TGI,[9],3.13 µM
same,GI50,[10],2100 nM
same,LC50,[10],8.79 µM
same,TGI,[10],4.29 µM
same,GI50,[11],1890 nM
same,TGI,[11],3.56 µM
same,CC50,[11],6.68 µM
same,GI50,[12],2140 nM
same,TGI,[12],6.14 µM
same,CC50,[12],29 µM
same,GI50,[13],1580 nM
same,TGI,[13],4.5 µM
same,CC50,[13],53.7 µM
same,GI50,[14],2010 nM
same,LC50,[14],8.66 µM
same,TGI,[14],4.17 µM
same,GI50,[15],2470 nM
same,LC50 (concentration killing 50% of cells),[15],22.3 µM
same,TGI,[15],6.17 µM
same,GI50,[16],2010 nM
same,LC50 (concentration killing 50% of cells),[16],9.85 µM
same,TGI,[16],4.45 µM
same,GI50,[17],15.3 µM
same,LC50 (concentration causing 50% net cell kill),[17],60.5 µM
same,TGI,[17],30.4 µM
same,GI50,[18],1830 nM
same,LC50,[18],6.34 µM
same,TGI,[18],3.41 µM
same,GI50,[19],2500 nM
same,LC50,[19],80 µM
same,TGI,[19],9.28 µM
same,GI50,[20],2970 nM
same,LC50 (concentration killing 50% of cells),[20],39.2 µM
same,TGI,[20],15.4 µM
same,GI50,[21],2020 nM
same,LC50 (lethal concentration 50),[21],9.45 µM
same,TGI,[21],4.37 µM
same,GI50,[22],4.14 µM
same,"LC50 (lethal concentration, 50% cell kill)",[22],> 100 µM
same,TGI,[22],18.8 µM
same,GI50,[23],1800 nM
same,LC50,[23],7.47 µM
same,TGI,[23],3.67 µM
same,GI50,[24],3.61 µM
same,LC50,[24],63.1 µM
same,TGI,[24],11.9 µM
same,GI50,[25],1720 nM
same,LC50,[25],8.97 µM
same,TGI,[25],3.92 µM
same,GI50,[26],1680 nM
same,LC50,[26],9.74 µM
same,TGI,[26],4.05 µM
same,GI50,[27],1920 nM
same,LC50 (concentration killing 50% of cells),[27],9.53 µM
same,TGI,[27],4.28 µM
same,GI50,[28],2640 nM
same,LC50,[28],> 100 µM
same,TGI,[28],8.9 µM
same,GI50,[29],1630 nM
same,LC50 (concentration killing 50% of cells),[29],7.27 µM
same,TGI,[29],3.44 µM
same,GI50,[30],2490 nM
same,LC50,[30],86.1 µM
same,TGI,[30],8.08 µM
same,GI50,[31],1500 nM
same,LC50 (concentration killing 50% of cells),[31],8.5 µM
same,TGI,[31],3.57 µM
same,GI50,[32],1730 nM
same,TGI,[32],3.47 µM
same,CC50,[32],6.98 µM
same,GI50,[33],5.58 µM
same,LC50,[33],> 100 µM
same,TGI,[33],69.3 µM
same,GI50,[34],1700 nM
same,LC50 (concentration killing 50% of cells),[34],44.4 µM
same,TGI,[34],5.39 µM
same,GI50,[35],1860 nM
same,LC50 (concentration killing 50% of cells),[35],> 100 µM
same,TGI,[35],5.44 µM
O=C(CNc1ccc(Cl)cc1)Nc1ccc(-c2nc3ccccc3s2)cc1,GI50,[1],2230 nM
same,TGI,[1],6.05 µM
same,CC50,[1],> 100 µM
same,GI50,[2],1250 nM
same,LC50,[2],> 100 µM
same,TGI,[2],7.09 µM
same,GI50,[3],2520 nM
same,LC50,[3],> 100 µM
same,TGI,[3],6.73 µM
same,GI50,[4],1620 nM
same,LC50,[4],> 100 µM
same,TGI,[4],5.76 µM
same,GI50,[5],3.31 µM
same,TGI,[5],13.7 µM
same,CC50,[5],> 100 µM
same,GI50,[6],3.34 µM
same,TGI,[6],12.9 µM
same,CC50,[6],> 100 µM
same,GI50,[7],2000 nM
same,LC50 (concentration killing 50% of cells),[7],12.3 µM
same,TGI,[7],4.65 µM
same,GI50,[8],3.73 µM
same,TGI,[8],13.1 µM
same,CC50,[8],39.8 µM
same,GI50,[9],1320 nM
same,LC50 (50% lethal concentration),[9],7.46 µM
same,TGI,[9],3.13 µM
same,GI50,[10],2080 nM
same,LC50,[10],9.08 µM
same,TGI,[10],4.35 µM
same,GI50,[11],1900 nM
same,TGI,[11],3.54 µM
same,CC50,[11],6.58 µM
same,GI50,[12],1840 nM
same,TGI,[12],3.91 µM
same,CC50,[12],8.3 µM
same,GI50,[13],1560 nM
same,TGI,[13],4.74 µM
same,CC50,[13],45.9 µM
same,GI50,[14],1960 nM
same,LC50,[14],8.17 µM
same,TGI,[14],4 µM
same,GI50,[15],3240 nM
same,LC50 (concentration killing 50% of cells),[15],33.5 µM
same,TGI,[15],11.1 µM
same,GI50,[16],1890 nM
same,LC50 (concentration killing 50% of cells),[16],8.08 µM
same,TGI,[16],3.9 µM
same,GI50,[17],1.28 µM
same,LC50 (concentration causing 50% net cell kill),[17],61.8 µM
same,TGI,[17],28.1 µM
same,GI50,[18],1860 nM
same,LC50,[18],7.14 µM
same,TGI,[18],3.65 µM
same,GI50,[19],2810 nM
same,LC50,[19],57.9 µM
same,TGI,[19],10.2 µM
same,GI50,[20],2650 nM
same,LC50 (concentration killing 50% of cells),[20],37.6 µM
same,TGI,[20],14.1 µM
same,GI50,[21],1940 nM
same,LC50 (lethal concentration 50),[21],7.84 µM
same,TGI,[21],3.9 µM
same,GI50,[22],6.19 µM
same,"LC50 (lethal concentration, 50% cell kill)",[22],> 100 µM
same,TGI,[22],27.9 µM
same,GI50,[23],2030 nM
same,LC50,[23],9.72 µM
same,TGI,[23],4.44 µM
same,GI50,[24],3.12 µM
same,LC50,[24],57.7 µM
same,TGI,[24],11.1 µM
same,GI50,[25],1700 nM
same,LC50,[25],19.4 µM
same,TGI,[25],4.22 µM
same,GI50,[26],2240 nM
same,LC50,[26],42.3 µM
same,TGI,[26],8.49 µM
same,GI50,[27],2260 nM
same,LC50 (concentration killing 50% of cells),[27],23.9 µM
same,TGI,[27],5.8 µM
same,GI50,[28],2560 nM
same,LC50,[28],> 100 µM
same,TGI,[28],7.06 µM
same,GI50,[29],1660 nM
same,LC50 (concentration killing 50% of cells),[29],7.68 µM
same,TGI,[29],3.57 µM
same,GI50,[30],2740 nM
same,LC50,[30],73.4 µM
same,TGI,[30],8.49 µM
same,GI50,[31],1960 nM
same,LC50 (concentration killing 50% of cells),[31],40.3 µM
same,TGI,[31],9.79 µM
same,GI50,[32],2010 nM
same,TGI,[32],5.13 µM
same,CC50,[32],17.9 µM
same,GI50,[33],4.41 µM
same,LC50,[33],> 100 µM
same,TGI,[33],37.7 µM
same,GI50,[34],1570 nM
same,LC50 (concentration killing 50% of cells),[34],9.1 µM
same,TGI,[34],3.78 µM
same,GI50,[35],1860 nM
same,LC50 (concentration killing 50% of cells),[35],> 100 µM
same,TGI,[35],5.94 µM

# — ChEMBL document CHEMBL4765227, “Hit to lead optimization of a series of N-[4-(1,3-benzothiazol-2-yl)phenyl]acetamides as monoacylglycerol lipase inhibitors with potential anticancer activity” (Eur J Med Chem, 2016)
